Experimental data reported in patent publication US20080109040A1, “METHOD OF TREATING ARRHYTHMIAS” (priority 2002, published 2008).
pIC50: −log10 of the molar value. Entries after “also recorded” stand apart in the source; their conditions may differ.

Tests used:
[1] = target: T1, slowly activating component of the delayed rectifier current (IKs) (Canis lupus familiaris, UniProt A0A8I3N8W8); test: Whole cell voltage clamp of IKs tail current in isolated canine left ventricular myocytes; format: cell-based
T1 construct: Myocytes were isolated by enzymatic dissociation from a wedge-shaped section of the left ventricular free wall; endogenous in cells; host or cells: isolated canine left ventricular myocytes
T1 sequence (A0A8I3N8W8 1-676): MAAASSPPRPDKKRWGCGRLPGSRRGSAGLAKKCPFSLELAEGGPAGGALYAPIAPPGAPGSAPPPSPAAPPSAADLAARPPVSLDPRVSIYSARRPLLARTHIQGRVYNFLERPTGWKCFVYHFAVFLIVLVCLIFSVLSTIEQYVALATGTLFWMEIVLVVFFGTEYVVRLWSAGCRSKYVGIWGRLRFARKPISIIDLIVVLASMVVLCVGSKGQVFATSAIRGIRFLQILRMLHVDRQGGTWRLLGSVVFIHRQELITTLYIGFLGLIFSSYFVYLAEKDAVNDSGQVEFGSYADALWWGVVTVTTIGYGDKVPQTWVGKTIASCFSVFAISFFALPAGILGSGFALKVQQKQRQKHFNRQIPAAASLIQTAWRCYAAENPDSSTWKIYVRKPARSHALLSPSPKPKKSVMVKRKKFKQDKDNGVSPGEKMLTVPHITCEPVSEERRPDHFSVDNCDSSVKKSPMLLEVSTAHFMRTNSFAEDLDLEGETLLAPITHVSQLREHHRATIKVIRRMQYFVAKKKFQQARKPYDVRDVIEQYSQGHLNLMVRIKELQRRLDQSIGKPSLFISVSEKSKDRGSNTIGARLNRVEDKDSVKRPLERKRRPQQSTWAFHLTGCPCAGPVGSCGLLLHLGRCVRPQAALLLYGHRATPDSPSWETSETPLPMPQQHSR
Procedure: Myocytes were isolated by enzymatic dissociation from a wedge-shaped section of the left ventricular free wall supplied by the left circumflex coronary artery. Cells from the epicardial and midmyocardial regions of the left ventricle were used in this study.
Inward rectifier potassium current (IK), slow delayed rectifier potassium current (IKs), and rapid delayed rectifier potassium current (IKr) were recorded at 37° C. using conventional whole cell voltage clamp configuration.
IK1 was measured using an external solution containing 3 μM ouabain and 5 μM nifedipine to block the sodium-potassium pump and L-type calcium current (ICa,L), respectively. […] 5 μM nifedipine was present in the external solution when IKr was being recorded.
Isolated myocytes were placed in a temperature controlled 0.5 ml chamber (Medical Systems, Greenvale, N.Y.) on the stage of an inverted microscope and superfused at a rate of 2 ml/min. An eight-barrel quartz micromanifold (ALA Scientific Instruments Inc., Westbury, N.Y.) placed 100 μm from the cell was used to apply ranolazine at concentrations of (in μM): 0.1, 0.5, 1.0, 5.0, 10 and 100.0. An Axopatch 1D amplifier (Axon Instruments, Foster City, Calif.) was operated in voltage clamp mode to record currents. […]

[2] = system: guinea pig isolated heart; test: K-H buffer perfused guinea pig isolated heart: MAP duration, EADs and VT; conditions: for Effect on ATXII-induced EADs and MAP prolongation: ranolazine 10 μM; for Decrease of MAPS90: ranolazine 10 μmol/L; for Effect on ATXII-induced EADs and VT: ranolazine 5, 10 and 30 μM in the presence of ATXII
From the text: To study the effect of ranolazine on ATXII induced MAP (monophasic action potential) duration prolongation, EADs and ventricular tachyarrhythmia (VT), the K—H buffer perfused guinea pig isolated heart model was used.
Multiple EADs and sustained depolarizations were frequently observed.

epicardial preparations = test: Action potential studies in isolated canine ventricular epicardial tissues; set-up: Amplitude / Overshoot: unit not given beside the values; conditions: for Amplitude / Overshoot / RMP: epicardial, BCL = 500 msec
Procedure: The composition of the Tyrode's solution was (in mM): […] Action potential recordings: Transmembrane potentials were recorded using standard glass microelectrodes filled with 2.7 M KCl (10 to 20 MΩ DC resistance) connected to a high input-impedance amplification system (World Precision Instruments, Sarasota, Fla., USA). […] Data recorded at BCLs of 500 and 2000 msec are presented.

[3] = epicardium, low [K+]o, BCL = 2000 msec

For COc1ccccc1OCC(O)CN1CCN(CC(=O)Nc2c(C)cccc2C)CC1 (racemic) [ranolazine, N-(2,6-dimethylphenyl)-4-[2-hydroxy-3-(2-methoxyphenoxy)propyl]-1-piperazineacetamide], the “Block of IKs tail current” value ([1]; ranolazine 100 μM, reversed on washout) was “largely eliminated the tail current; also recorded: almost completely blocked”, the pIC50 ([1]; read-out: IC50 for inhibition of IKs tail current) was 4.87 and the “Effect on ATXII-induced EADs and MAP prolongation” value ([2]; ATXII 20 nM) was “reversed”. The “Effect on ATXII-induced EADs and MAP prolongation” value ([2]; ATXII 20 nM, listed as Ranolazine) was “reduced or effectively abolished”, the “Decrease of MAPS90” value ([2]; ATX-II plus 293B) was 8.3±0.1% and the “Decrease of MAPS90” value ([2]; ATX-II plus E-4031) was 24.5±0.1%. For the same compound, the “Effect on ATXII-induced VT” value ([2]; ranolazine 30 μM, ATXII 20 nM) was “reduced or effectively abolished”, the “Effect on ATXII-induced EADs and VT” value [2] was “VTs were terminated” and the “Effect on ATXII-induced EADs and VT” value ([2]; listed as Ranolazine) was “significantly suppressed EADs and VT”. The “Effect on APD” value (epicardial preparations; epicardial tissues, BCL 500 msec) was “concentration-dependent prolongation”, the Amplitude (epicardial preparations; ranolazine 1.0 μM) was 93 ± 5 and the Overshoot (epicardial preparations; ranolazine 1.0 μM) was 10 ± 4. For the same compound, the RMP (epicardial preparations; ranolazine 1.0 μM) was −84 ± 4, the Amplitude (epicardial preparations; ranolazine 5.0 μM) was 101 ± 2 and the Overshoot (epicardial preparations; ranolazine 5.0 μM) was 12 ± 3. For the same compound, the RMP (epicardial preparations; ranolazine 5.0 μM) was −89 ± 1, the Amplitude (epicardial preparations; ranolazine 10.0 μM) was 94 ± 5 and the Overshoot (epicardial preparations; ranolazine 10.0 μM) was 8 ± 4. For the same compound, the RMP (epicardial preparations; ranolazine 10.0 μM) was −88 ± 2, the Amplitude (epicardial preparations; ranolazine 50.0 μM) was 86 ± 12 and the Overshoot (epicardial preparations; ranolazine 50.0 μM) was 0 ± 11. The RMP (epicardial preparations; ranolazine 50.0 μM) was −86 ± 1, the Amplitude (epicardial preparations; ranolazine 100.0 μM (n=2)) was 93 ± 3 and the Overshoot (epicardial preparations; ranolazine 100.0 μM (n=2)) was 8 ± 4. The RMP (epicardial preparations; ranolazine 100.0 μM (n=2)) was −85 ± 3, the “Effect on APD90” value (epicardial preparations; epicardium, low [K+]o, BCL 500 msec) was “prominent concentration-dependent prolongation” and the “Effect on APD50” value (epicardial preparations; [3]) was “little change”. For the same compound, the “Effect on APD90” value (epicardial preparations; [3]) was “concentration-dependent prolongation” and the “Effect on APD in two of four epicardial preparations” value (epicardial preparations; ranolazine 100.00 μM, BCL 500 msec) was “excessive APD prolongation”.
